From PubChem BioAssay (NCI)
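Test compounds were applied to cells in 96-well plates for 48 hours at 5 doses. At the TGI there is no net growth.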

Legend:
Assay in all cases: NCI anticancer screen, dose series, 48 h
UO-31 renal = tested on: UO-31 renal
NCI-H226 lung = tested on: NCI-H226 lung
SF-295 CNS = tested on: SF-295 CNS
MDA-N = tested on: MDA-N
SW-620 colon = tested on: SW-620 colon
HS 578T breast = tested on: HS 578T breast
SNB-19 CNS = tested on: SNB-19 CNS
RXF 393 renal = tested on: RXF 393 renal
U251 CNS = tested on: U251 CNS
HT29 colon = tested on: HT29 colon
786-0 renal = tested on: 786-0 renal
ACHN renal = tested on: ACHN renal
CCRF-CEM leukemia = tested on: CCRF-CEM leukemia
SF-539 CNS = tested on: SF-539 CNS
TK-10 renal = tested on: TK-10 renal
PC-3 prostate = tested on: PC-3 prostate
MCF7 breast = tested on: MCF7 breast
SNB-75 CNS = tested on: SNB-75 CNS
HCT-116 colon = tested on: HCT-116 colon
CAKI-1 renal = tested on: CAKI-1 renal
SN12C renal = tested on: SN12C renal
SK-OV-3 ovarian = tested on: SK-OV-3 ovarian
COLO 205 colon = tested on: COLO 205 colon
T-47D breast = tested on: T-47D breast
OVCAR-3 ovarian = tested on: OVCAR-3 ovarian
NCI-H522 lung = tested on: NCI-H522 lung
UACC-257 melanoma = tested on: UACC-257 melanoma
HL-60(TB) leukemia = tested on: HL-60(TB) leukemia
HCT-15 colon = tested on: HCT-15 colon
IGROV1 ovarian = tested on: IGROV1 ovarian
K-562 leukemia = tested on: K-562 leukemia
A549 NSCLC = tested on: A549 NSCLC
MDA-MB-231 breast = tested on: MDA-MB-231 breast
M14 melanoma = tested on: M14 melanoma
MOLT-4 leukemia = tested on: MOLT-4 leukemia
OVCAR-5 ovarian = tested on: OVCAR-5 ovarian
NCI-H460 lung = tested on: NCI-H460 lung
EKVX NSCLC = tested on: EKVX NSCLC
OVCAR-8 ovarian = tested on: OVCAR-8 ovarian
KM12 colon = tested on: KM12 colon
SF-268 CNS = tested on: SF-268 CNS
LOX IMVI melanoma = tested on: LOX IMVI melanoma
SK-MEL-5 melanoma = tested on: SK-MEL-5 melanoma
RPMI-8226 leukemia = tested on: RPMI-8226 leukemia
NCI/ADR-RES ovarian = tested on: NCI/ADR-RES ovarian
SK-MEL-28 melanoma = tested on: SK-MEL-28 melanoma
HOP-62 NSCLC = tested on: HOP-62 NSCLC
DU-145 prostate = tested on: DU-145 prostate
SK-MEL-2 melanoma = tested on: SK-MEL-2 melanoma
SR leukemia = tested on: SR leukemia
MDA-MB-435 = tested on: MDA-MB-435
A498 renal = tested on: A498 renal
NCI-H23 lung = tested on: NCI-H23 lung
OVCAR-4 ovarian = tested on: OVCAR-4 ovarian
HOP-92 NSCLC = tested on: HOP-92 NSCLC
HCC-2998 colon = tested on: HCC-2998 colon
MALME-3M melanoma = tested on: MALME-3M melanoma

Measured: TGI

CC1(C)CC(=O)c2c(nc3c(ccc4ccccc43)c2-c2ccc(NC(=O)CCCC(=O)Nc3ccc(-c4c5c(nc6c4ccc4ccccc46)CC(C)(C)CC5=O)cc3)cc2)C1
> 100 µM: UO-31 renal | NCI-H226 lung | SF-295 CNS | MDA-N | SW-620 colon | HS 578T breast | SNB-19 CNS | RXF 393 renal | U251 CNS | HT29 colon | 786-0 renal | ACHN renal | CCRF-CEM leukemia | SF-539 CNS | TK-10 renal | PC-3 prostate | MCF7 breast | SNB-75 CNS | HCT-116 colon | CAKI-1 renal | SN12C renal | SK-OV-3 ovarian | COLO 205 colon | T-47D breast | OVCAR-3 ovarian | NCI-H522 lung | UACC-257 melanoma | HL-60(TB) leukemia | HCT-15 colon | IGROV1 ovarian | K-562 leukemia | A549 NSCLC | MDA-MB-231 breast | M14 melanoma | MOLT-4 leukemia | OVCAR-5 ovarian | NCI-H460 lung | EKVX NSCLC | OVCAR-8 ovarian | KM12 colon | SF-268 CNS | LOX IMVI melanoma | SK-MEL-5 melanoma | RPMI-8226 leukemia | NCI/ADR-RES ovarian | SK-MEL-28 melanoma | HOP-62 NSCLC | DU-145 prostate | SK-MEL-2 melanoma | SR leukemia | MDA-MB-435

CCOC(=O)Cn1nc2ccc(Nc3c(C)[n+]([O-])c4cc(F)c(OCC)cc4[n+]3[O-])cc2n1
90.2 µM: ACHN renal
51.9 µM: RXF 393 renal
> 100 µM: UO-31 renal | NCI-H226 lung | SF-295 CNS | MDA-N | SW-620 colon | HS 578T breast | A498 renal | U251 CNS | HT29 colon | 786-0 renal | CCRF-CEM leukemia | SF-539 CNS | PC-3 prostate | MCF7 breast | HCT-116 colon | CAKI-1 renal | NCI-H23 lung | SK-OV-3 ovarian | T-47D breast | OVCAR-3 ovarian | NCI-H522 lung | UACC-257 melanoma | HL-60(TB) leukemia | HCT-15 colon | IGROV1 ovarian | OVCAR-4 ovarian | K-562 leukemia | MDA-MB-231 breast | M14 melanoma | MOLT-4 leukemia | OVCAR-5 ovarian | NCI-H460 lung | EKVX NSCLC | OVCAR-8 ovarian | KM12 colon | SF-268 CNS | LOX IMVI melanoma | SK-MEL-5 melanoma | RPMI-8226 leukemia | NCI/ADR-RES ovarian | SK-MEL-28 melanoma | HOP-62 NSCLC | DU-145 prostate | SK-MEL-2 melanoma | SR leukemia | MDA-MB-435
63.8 µM: HOP-92 NSCLC
71.8 µM: TK-10 renal

O=c1ccn(C2OC(COC3CCCCO3)C(OC3CCCCO3)C2OC2CCCCO2)c(=O)n1-c1ccccc1 (stereo not drawn)
> 100 µM: UO-31 renal | NCI-H226 lung | SF-295 CNS | MDA-N | SW-620 colon | HS 578T breast | SNB-19 CNS | RXF 393 renal | A498 renal | U251 CNS | HT29 colon | 786-0 renal | ACHN renal | HCC-2998 colon | CCRF-CEM leukemia | SF-539 CNS | TK-10 renal | PC-3 prostate | MCF7 breast | SNB-75 CNS | HCT-116 colon | CAKI-1 renal | NCI-H23 lung | SN12C renal | SK-OV-3 ovarian | COLO 205 colon | T-47D breast | OVCAR-3 ovarian | NCI-H522 lung | UACC-257 melanoma | HL-60(TB) leukemia | HCT-15 colon | IGROV1 ovarian | OVCAR-4 ovarian | K-562 leukemia | A549 NSCLC | MDA-MB-231 breast | M14 melanoma | MOLT-4 leukemia | OVCAR-5 ovarian | NCI-H460 lung | EKVX NSCLC | MALME-3M melanoma | OVCAR-8 ovarian | KM12 colon | SF-268 CNS | LOX IMVI melanoma | SK-MEL-5 melanoma | RPMI-8226 leukemia | HOP-92 NSCLC | NCI/ADR-RES ovarian | SK-MEL-28 melanoma | HOP-62 NSCLC | DU-145 prostate | SK-MEL-2 melanoma | SR leukemia | MDA-MB-435
